Assay results as given in paper PMC10171913 (Journal of the American Chemical Society, 2022).

System: tqq cluster of S. suis
Experiment: High-throughput elicitor screening
Type: cell-based, Streptococcus suis
Conditions: for elicited features in HiTES 3D difference map: ~442-member human endogenous metabolite library, UPLC-Qtof-MS, Figure 2A; for elicitation of threoglucin E: 2D slice from the 3D map, abundance of threoglucin E across all 442 elicitors, Figure 2B

For NC(=O)c1cccnc1 [nicotinamide], the “elicited features in HiTES 3D difference map” value was “elicited peaks”.

For O=C(O)c1cccnc1 [niacin], the “elicitation of threoglucin E” value was “best elicitors” and the “elicited features in HiTES 3D difference map” value was “elicited peaks”.

For c1cncc([C@@H]2CCCCN2)c1 [anabasine], the “elicitation of threoglucin E” value was “best elicitors” and the “elicited features in HiTES 3D difference map” value was “elicited peaks”.
